What was measured:
Experiment in all cases: relative viability (nuclei count vs DMSO), 5 days (fraction); higher = more cells survive
[1] = compound: C1COCCN1C2=NC(=NC3=C2OC4=C3C=CC=N4)C5=CC(=CC=C5)NC(=O)C6=CN=C(C=C6)N + CCNC(=O)c1noc(-c2cc(C(C)C)c(O)cc2O)c1-c1ccc(CN2CCOCC2)cc1 [Luminespib] (partner 0.01 µM)
Method in brief: (§1)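 Relative viability was taken as the ratio of nuclei in treated wells to nuclei in vehicle wells. Lung cancer cell lines in 1536-well plates received compounds by pin tool one day after seeding, either one drug alone or a fixed anchor-drug dose plus five library-drug doses (not always all listed) in √10 steps. Nuclei were counted on 4× images after 5 days of treatment, and values are medians of duplicate plates.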

SGI-1776 + Decitabine = compound: CN1CCC(CNc2ccc3ncc(-c4cccc(OC(F)(F)F)c4)n3n2)CC1 [SGI-1776] + Nc1ncn([C@H]2C[C@H](O)[C@@H](CO)O2)c(=O)n1 [Decitabine] (partner 2 µM)
Method in brief: as §1

SGI-1776 + Vorinostat = compound: CN1CCC(CNc2ccc3ncc(-c4cccc(OC(F)(F)F)c4)n3n2)CC1 [SGI-1776] + O=C(CCCCCCC(=O)Nc1ccccc1)NO [Vorinostat] (partner 1 µM)
Method in brief: as §1

Entinostat + Bortezomib = compound: Nc1ccccc1NC(=O)c1ccc(CNC(=O)OCc2cccnc2)cc1 [Entinostat] + CC(C)C[C@H](NC(=O)[C@H](Cc1ccccc1)NC(=O)c1cnccn1)B(O)O [Bortezomib] (partner 0.002 µM)
Method in brief: as §1

| Cell Line | relative viability ([1]; first compound 0.02 µM) | relative viability ([1]; first compound 0.06325 µM) | relative viability ([1]; first compound 0.2 µM) | relative viability ([1]; first compound 0.6325 µM) | relative viability ([1]; first compound 2 µM) | relative viability (SGI-1776 + Decitabine; first compound 0.08 µM) | relative viability (SGI-1776 + Decitabine; first compound 0.8 µM) | relative viability (SGI-1776 + Decitabine; first compound 2.53 µM) | relative viability (SGI-1776 + Decitabine; first compound 8 µM) | relative viability (SGI-1776 + Vorinostat; first compound 0.08 µM) | relative viability (SGI-1776 + Vorinostat; first compound 0.8 µM) | relative viability (SGI-1776 + Vorinostat; first compound 2.53 µM) | relative viability (SGI-1776 + Vorinostat; first compound 8 µM) | relative viability (Entinostat + Bortezomib; first compound 0.02 µM) | relative viability (Entinostat + Bortezomib; first compound 0.06325 µM) | relative viability (Entinostat + Bortezomib; first compound 0.2 µM) | relative viability (Entinostat + Bortezomib; first compound 0.6325 µM) | relative viability (Entinostat + Bortezomib; first compound 2 µM) |
| --- | --- | --- | --- | --- | --- | --- | --- | --- | --- | --- | --- | --- | --- | --- | --- | --- | --- | --- |
| 201T | 1.13 | 1 | 1.05 | 0.985 | 0.827 | 0.847 | 0.894 | 0.886 | 0.827 | 0.977 | 1.01 | 0.98 | 0.946 | 1.09 | 1.11 | 1.05 | 1.01 | 0.872 |
| A549 | – | – | – | – | – | 0.303 | 0.238 | 0.285 | 0.097 | – | – | – | – | – | – | – | – | – |
| A-427 | 0.812 | 0.951 | 0.982 | 0.872 | 0.544 | 0.601 | 0.587 | 0.539 | 0.521 | 0.861 | 0.9 | 0.882 | 0.815 | 0.99 | 0.975 | 0.966 | 0.916 | 0.632 |
| ABC-1 | 0.383 | 1.28 | 0.473 | 0.739 | 0.475 | 1.08 | 1.09 | 0.909 | 0.954 | 1.02 | 1.14 | 1.01 | 0.702 | 0.338 | 0.327 | 0.331 | 0.216 | 0.277 |
| BEN | 0.479 | 0.312 | 0.313 | 0.328 | 0.42 | 0.733 | 0.711 | 0.635 | 0.554 | 0.643 | 0.618 | 0.584 | 0.543 | 0.96 | 0.797 | 0.741 | 0.577 | 0.247 |
| CAL-12T | 0.465 | 0.602 | 0.21 | 0.418 | 0.267 | – | – | – | – | 0.794 | 0.876 | 0.723 | 0.699 | 1.19 | 0.973 | 0.96 | 0.99 | 0.665 |
| COR-L23 | 0.761 | 0.99 | 0.89 | 0.667 | 0.467 | 0.445 | 0.456 | 0.466 | 0.342 | 0.581 | 0.387 | 0.41 | 0.327 | 0.994 | 0.881 | 0.964 | 0.423 | 0.147 |
| COR-L 105 | 0.975 | 0.682 | 0.677 | 0.674 | 0.472 | 0.75 | 0.705 | 0.737 | 0.544 | 0.921 | 0.885 | 0.935 | 0.642 | 0.608 | 0.914 | 0.926 | 0.484 | 0.313 |
| Calu-6 | – | – | – | – | – | – | – | – | – | – | – | – | – | 1.02 | 1.02 | 0.944 | 0.69 | 0.504 |
| ChaGo-K-1 | 0.635 | 0.582 | 0.513 | 0.526 | 0.518 | 0.56 | 0.542 | 0.558 | 0.47 | 0.788 | 0.825 | 0.797 | 0.73 | 1.41 | 1.02 | 1.09 | 0.94 | 0.623 |
| EBC-1 | – | – | – | – | – | – | – | – | – | – | – | – | – | 0.564 | 0.599 | 0.293 | 0.196 | 0.176 |

Reference: the supplement of paper PMC10307832
